Data: US8741886B2, “Baclofen and acamprosate based therapy of neurological disorders” (Pharnext, priority 2011, dated 2014)

Columns and labels:
[1] = system: mice injected i.c.v. with Aβ25-35 peptide; test: Spontaneous alternation, Y-maze test, after i.c.v. Aβ25-35; format: in vivo; settings: Acamprosate 32 μg/kg/day, Baclofen 480 μg/kg/day
Excerpt: The Y-maze is made of grey polyvinylchloride. Each arm is 40 cm long, 13 cm high, 3 cm wide at the bottom, 10 cm wide at the top, and converging at an equal angle. […] An alternation is defined as entries into all three arms on consecutive occasions.

[2] = system: rat primary cortical cells; test: Toxicity of human Aβ1-42 peptide on primary cortical neuron cells: LDH release; format: cell-based; settings: for protection of neurons from amyloid injury: 1 h pre-treatment, Estradiol 150 nM or BDNF 50 ng/mL
Experimental: Rat cortical neurons were cultured as described by Singer et al. (47). Briefly pregnant female rats of 15 days gestation were killed by cervical dislocation (Rats Wistar) and the foetuses were removed from the uterus. The cortex was removed and placed in ice-cold medium of Leibovitz (L15) containing 2% of Penicillin 10.000 U/ml and Streptomycin 10 mg/ml and 1% of bovine serum albumin (BSA). Cortexes were dissociated by trypsin for 20 min at 37° C. (0.05%). The reaction was stopped by the addition of Dulbecco's modified Eagle's medium (DMEM) containing DNasel grade II and 10% of foetal calf serum (FCS). Cells were then mechanically dissociated by 3 serial passages through a 10 ml pipette and centrifuged at 515×g for 10 min at +4° C. The supernatant was discarded and the pellet of cells was re-suspended in a defined culture medium consisting of Neurobasal supplemented with B27 (2%), L-glutamine (0.2 mM), 2% of PS solution and 10 ng/ml of BDNF. Viable cells were counted in a Neubauer cytometer using the trypan blue exclusion test. The cells were seeded at a density of 30 000 cells/well in 96 well-plates (wells were pre-coated with poly-L-lysine (10 μg/ml)) and were cultured at +37° C. in a humidified air (95%)/CO2 (5%) atmosphere.
Briefly, Aβ1-42 peptide was reconstituted in define culture medium at 40 μM (mother solution) and was slowly shaken at +37° C. for 3 days in dark. The control medium was prepared in the same conditions.
After 10 days of neuron culture, test compounds were solved in culture medium (+0.1% DMSO) and then pre-incubated with neurons for 1 hour before the Aβ1-42 application (in a final volume per culture well of 100 μl). One hour after test compound(s) incubation, 100 μl of Aβ1-42 peptide was added to a final concentration of 10 μM diluted in presence of drug(s), in order to avoid further test compound(s) dilutions. Cortical neurons were intoxicated for 24 hours. Three separate cultures were performed per condition, 6 wells per condition.
BDNF (50 ng/ml) and Estradiol-β (150 nM) were used as positive control and reference compounds respectively. Three separate cultures will be performed per condition, 12 wells per condition.
Estradiol-β at 150 nM was used as a positive control (FIG. 4).
Estradiol-β was solved in culture medium and pre-incubated for 1 h before the amyloid-β1-42 application.
The following conditions were assessed: • CONTROL PLAQUE: 12 wells/condition • Negative Control: medium alone+0.1% DMSO • Intoxication: amyloid-β1-42 (10 μM) for 24 h • Reference compound: Estradiol (150 nM) 1 hr. • DRUG PLATE: 6 wells/condition • Negative Control: medium alone+0.1% DMSO • Intoxication: amyloid-β1-42 (10 μM) for 24 h • Test compound(s): test compound(s)—1 hr followed by amyloid-β1-42 (10 μM) for 24 h Lactate Dehydrogenase (LDH) Activity Assay
24 hours after intoxication, the supernatant was taken off and analyzed with Cytotoxicity Detection Kit (LDH, Roche Applied Science, ref: 11644793001, batch: 11800300). This colorimetric assay for the quantification of cell toxicity is based on the measurement of lactate dehydrogenase (LDH) activity released from the cytosol of dying cells into the supernatant.
Data were expressed in percentage of control conditions (no intoxication, no amyloid=100%) in order to express the amyloid injury. All values were expressed as mean+/−SEM (s.e.mean) of the 3 cultures (n=6 wells per condition). Statistic analyses were done on the different conditions (ONE-WAY ANOVA followed by the Dunnett's test when it was allowed, Statview software version 5.0).

Molecule: COc1cc2c(cc1OC)C(=O)C(CC1CCN(Cc3ccccc3)CC1)C2 (centres unmarked) [Donepezil]
- protection of percentage of alternation (Y-maze), low doses with Donepezil ([1]; Donepezil 0.25 mg/kg/day): 32%
- effect on percentage of alternation (Y-maze), low doses (in words) ([1]; drugs alone: Donepezil 0.25 mg/kg/day): no significant effect

Molecule: C[C@]12CC[C@@H]3c4ccc(O)cc4CC[C@H]3[C@@H]1CC[C@@H]2O [Estradiol]
- protection of neurons from amyloid injury [2]: −94%

Molecule: NCCCS(=O)(=O)O [Homotaurine]
- prevention of Aβ1-42 intoxication by pre-treatment ([2]; 8 nM): 99%

B1: BDNF: BDNF (50 ng/ml) used as positive control for neuroprotection (protein, UniProt P23560 19-247, looked up)
Neurotrophic factor BDNF …: APMKEANIRGQGGLAYPGVRTHGTLESVNGPKAGSRGLTSLADTFEHVIEELLDEDQKVRPNEENNKDADLYTSRVMLSSQVPLEPPLLFLLEEYKNYLDAANMSMRVRRHSDPARRGELSVCDSISEWVTAADKKTAVDMSGGTVTVLEKVPVSKGQLKQYFYETKCNPMGYTKEGCRGIDKRHWNSQCRTTQSYVRALTMDSKKRIGWRFIRIDTSCVCTLTIKRGR
- protection of neurons from amyloid injury [2]: −94%
